Source: US8815933B2 (EnVivo Pharmaceuticals, Inc., priority 2008, dated 2014)

How the values were obtained:
[1] = maximum plasma concentration in human SAD/MAD clinical trials; format: in vivo; conditions: for Cmax: plasma, oral
Method: Multiple ascending dose (MAD) human clinical trials were conducted.
These values are 35-2000 times lower than would have anticipated if efficacy was to be achieved when the free plasma concentration reached the Ki or the ECref concentrations. […] These values are 9.4-667 times lower than expected.

[2] = system: patients suffering from schizophrenia; assay: P50 sensory gating evoked response in schizophrenia patients; format: in vivo, Human
Method: The test described above was used to study the effect of the test compound on cognition in patients suffering from schizophrenia. Prior to testing, the patients were dosed with: 1 mg of the test compound daily, 0.3 mg of the test compound daily or were administered a placebo for 20 days. Subjects were tested as described below. P50 waves were elicited by clicks, 1 msec in duration, grouped in pairs in the classic S1-S2 sequence and presented through earpieces inserted into the auditory canals. Click intensity was adjusted individually to 50 dB above the hearing threshold. The offset-to-onset time from S1 to S2 was fixed at 500 msec. The offset-to-onset time between click pairs was varied from 7-11 sec. […] P50 response amplitude was calculated as the voltage difference between the P50 peak and the preceding negative trough. The P50 gating ratio was then calculated after (Olincy et al., 2006) as the amplitude of the P50 response to the second (test) stimulus divided by the amplitude of the P50 response to the first (conditioning) stimulus. […] The P50 amplitude difference (Fuerst et al., 2007) was also measured. […] Unfortunately, in the case of the P50/[…] gating study, it was necessary to discard several patients and post-treatment assignment time points from the analysis because, in those instances, a P50 waveform was not identifiable and therefore could not be measured. […]

Cl.O=C(N[C@H]1CN2CCC1CC2)c1cc2cccc(Cl)c2s1
maximum free plasma concentration ([1]; 0.3 mg dose, human): 0.073 to 0.283 nM | free plasma concentration ([1]; 1.0 mg doses, human): 0.237 to 1.06 nM | Cmax free ([1]; MAD1, Day 1, 1 mg): 0.252 nM | Cmax total ([1]; MAD1, Day 1, 1 mg): 1.96 nM | Cmax free ([1]; MAD1, Day 7, 1 mg): 0.853 nM | Cmax total ([1]; MAD1, Day 7, 1 mg): 6.61 nM | Cmax free ([1]; MAD1, Day 14, 1 mg): 1.06 nM | Cmax total ([1]; MAD1, Day 14, 1 mg): 8.23 nM | Cmax free ([1]; MAD2, Day 1, 0.1 mg): 0.022 nM | Cmax total ([1]; MAD2, Day 1, 0.1 mg): 0.172 nM | Cmax free ([1]; MAD2, Day 1, 1 mg): 0.251 nM | Cmax total ([1]; MAD2, Day 1, 1 mg): 1.943 nM | Cmax free ([1]; MAD2, Day 21, 0.1 mg): 0.093 nM | Cmax total ([1]; MAD2, Day 21, 0.1 mg): 0.724 nM | Cmax free ([1]; MAD2, Day 21, 1 mg): 0.974 nM | Cmax total ([1]; MAD2, Day 21, 1 mg): 7.547 nM | Cmax free ([1]; MAD3, Day 1, 0.3 mg): 0.073 nM | Cmax total ([1]; MAD3, Day 1, 0.3 mg): 0.568 nM | Cmax free ([1]; MAD3, Day 1, 1 mg): 0.221 nM | Cmax total ([1]; MAD3, Day 1, 1 mg): 1.71 nM | Cmax free ([1]; MAD3, Day 21, 0.3 mg): 0.283 nM | Cmax total ([1]; MAD3, Day 21, 0.3 mg): 2.195 nM | Cmax free ([1]; MAD3, Day 21, 1 mg): 0.800 nM | Cmax total ([1]; MAD3, Day 21, 1 mg): 6.20 nM | Cmax free ([1]; SAD, Day 1, 1 mg): 0.237 nM | Cmax total ([1]; SAD, Day 1, 1 mg): 1.84 nM | Cmax total ([1]; SAD, Day 1, 3.5 mg): 6.42 nM | Cmax ([1]; human, 0.1 mg, MAD2, Day 1, 0.1 mg): 0.055 ng/mL | Cmax ([1]; human, 0.1 mg, MAD2, Day 21, 0.1 mg): 0.232 ng/mL | Cmax ([1]; human, 0.3 mg, MAD3, Day 1, 0.3 mg): 0.182 ng/mL | Cmax ([1]; human, 0.3 mg, MAD3, Day 21, 0.3 mg): 0.704 ng/mL | Cmax ([1]; human, 1 mg, MAD1, Day 1, 1 mg): 0.63 ng/mL | Cmax ([1]; human, 1 mg, MAD1, Day 7, 1 mg): 2.12 ng/mL | Cmax ([1]; human, 1 mg, MAD1, Day 14, 1 mg): 2.64 ng/mL | Cmax ([1]; human, 1 mg, MAD2, Day 1, 1 mg): 0.623 ng/mL | Cmax ([1]; human, 1 mg, MAD2, Day 21, 1 mg): 2.42 ng/mL | Cmax ([1]; human, 1 mg, MAD3, Day 1, 1 mg): 0.547 ng/mL | Cmax ([1]; human, 1 mg, MAD3, Day 21, 1 mg): 1.99 ng/mL | Cmax ([1]; human, 1 mg, SAD, Day 1, 1 mg): 0.59 ng/mL | Cmax ([1]; human, 3.5 mg, SAD, Day 1, 3.5 mg): 2.06 ng/mL | P50 amplitude difference (C-T), baseline-adjusted ([2]; 1.0 mg daily for 20 days vs placebo, FIG. 1B, F=3.97, P=0.07): normalization at the high dose | effects on the P50 component of the evoked response ([2]; limited to 1.0 mg dose, p=0.1): technically not significant
